# Legend:
# Test in all cases: relative viability (nuclei count vs DMSO), 5 days (fraction); higher = more cells survive
# ChaGo-K-1 = system: ChaGo-K-1
# Procedure, shortened: (§1)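 Five library-drug doses in √10 steps were combined with a fixed anchor-drug dose, or a single drug was given alone, by pin tool to lung cancer cell lines in 1536-well plates the day after seeding. Nuclei were stained and counted after 5 days. Relative viability is the nuclei count in treated wells over that in vehicle wells, taken as the median of duplicate plates.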
# SK-MES-1 = system: SK-MES-1
# Procedure, shortened: as §1
# H3255 = system: H3255
# Procedure, shortened: as §1
# COR-L23 = system: COR-L23
# Procedure, shortened: as §1
# NCI-H2023 = system: NCI-H2023
# Procedure, shortened: as §1
# NCI-H2087 = system: NCI-H2087
# Procedure, shortened: as §1
# NCI-H838 = system: NCI-H838
# Procedure, shortened: as §1
# NCI-H1944 = system: NCI-H1944
# Procedure, shortened: as §1
# EMC-BAC-2 = system: EMC-BAC-2
# Procedure, shortened: as §1
# LU99A = system: LU99A
# Procedure, shortened: as §1
# HCC-827 = system: HCC-827
# Procedure, shortened: as §1
# NCI-H2405 = system: NCI-H2405
# Procedure, shortened: as §1
# EPLC-272H = system: EPLC-272H
# Procedure, shortened: as §1
# LCLC-103H = system: LCLC-103H
# Procedure, shortened: as §1
# NCI-H1651 = system: NCI-H1651
# Procedure, shortened: as §1
# NCI-H650 = system: NCI-H650
# Procedure, shortened: as §1
# HCC-44 = system: HCC-44
# Procedure, shortened: as §1
# NCI-H1395 = system: NCI-H1395
# Procedure, shortened: as §1
# NCI-H520 = system: NCI-H520
# Procedure, shortened: as §1
# NCI-H1793 = system: NCI-H1793
# Procedure, shortened: as §1
# NCI-H2085 = system: NCI-H2085
# Procedure, shortened: as §1
compound,measurement,setting,value
CC(=O)O[C@@]12CO[C@@H]1C[C@H](O)[C@@]1(C)C(=O)[C@H](O)C3=C(C)[C@@H](OC(=O)[C@H](O)[C@@H](NC(=O)OC(C)(C)C)c4ccccc4)C[C@@](O)([C@@H](OC(=O)c4ccccc4)[C@H]21)C3(C)C [Docetaxel] + O=C(c1cc(Cc2n[nH]c(=O)c3ccccc23)ccc1F)N1CCN(C(=O)C2CC2)CC1 [Olaparib] (partner 8 µM),relative viability,ChaGo-K-1; first compound 0.0002 µM,0.384
same,relative viability,ChaGo-K-1; first compound 0.000632 µM,0.335
same,relative viability,ChaGo-K-1; first compound 0.002 µM,0.285
same,relative viability,ChaGo-K-1; first compound 0.006325 µM,0.3
same,relative viability,ChaGo-K-1; first compound 0.02 µM,0.181
same,relative viability,SK-MES-1; first compound 0.0002 µM,0.719
same,relative viability,SK-MES-1; first compound 0.000632 µM,0.405
same,relative viability,SK-MES-1; first compound 0.002 µM,0.354
same,relative viability,SK-MES-1; first compound 0.02 µM,0.145
same,relative viability,H3255; first compound 0.0002 µM,0.59
same,relative viability,H3255; first compound 0.000632 µM,0.555
same,relative viability,H3255; first compound 0.002 µM,0.439
same,relative viability,H3255; first compound 0.006325 µM,0.336
same,relative viability,H3255; first compound 0.02 µM,0.33
same,relative viability,COR-L23; first compound 0.0002 µM,0.307
same,relative viability,COR-L23; first compound 0.000632 µM,0.312
same,relative viability,COR-L23; first compound 0.002 µM,0.161
same,relative viability,COR-L23; first compound 0.006325 µM,0.134
same,relative viability,COR-L23; first compound 0.02 µM,0.0881
same,relative viability,NCI-H2023; first compound 0.0002 µM,0.437
same,relative viability,NCI-H2023; first compound 0.000632 µM,0.313
same,relative viability,NCI-H2023; first compound 0.002 µM,0.114
same,relative viability,NCI-H2023; first compound 0.006325 µM,0.114
same,relative viability,NCI-H2023; first compound 0.02 µM,0.0533
same,relative viability,NCI-H2087; first compound 0.0002 µM,0.586
same,relative viability,NCI-H2087; first compound 0.000632 µM,0.3
same,relative viability,NCI-H2087; first compound 0.002 µM,0.243
same,relative viability,NCI-H2087; first compound 0.006325 µM,0.125
same,relative viability,NCI-H2087; first compound 0.02 µM,0.0944
same,relative viability,NCI-H838; first compound 0.0002 µM,0.716
same,relative viability,NCI-H838; first compound 0.000632 µM,0.368
same,relative viability,NCI-H838; first compound 0.002 µM,0.268
same,relative viability,NCI-H838; first compound 0.006325 µM,0.137
same,relative viability,NCI-H838; first compound 0.02 µM,0.106
same,relative viability,NCI-H1944; first compound 0.0002 µM,0.439
same,relative viability,NCI-H1944; first compound 0.000632 µM,0.396
same,relative viability,NCI-H1944; first compound 0.002 µM,0.339
same,relative viability,NCI-H1944; first compound 0.006325 µM,0.238
same,relative viability,NCI-H1944; first compound 0.02 µM,0.118
same,relative viability,EMC-BAC-2; first compound 0.0002 µM,0.492
same,relative viability,EMC-BAC-2; first compound 0.000632 µM,0.47
same,relative viability,EMC-BAC-2; first compound 0.002 µM,0.364
same,relative viability,EMC-BAC-2; first compound 0.006325 µM,0.318
same,relative viability,EMC-BAC-2; first compound 0.02 µM,0.237
same,relative viability,LU99A; first compound 0.0002 µM,0.259
same,relative viability,LU99A; first compound 0.000632 µM,0.201
same,relative viability,LU99A; first compound 0.002 µM,0.209
same,relative viability,LU99A; first compound 0.006325 µM,0.23
same,relative viability,LU99A; first compound 0.02 µM,0.163
same,relative viability,HCC-827; first compound 0.0002 µM,0.626
same,relative viability,HCC-827; first compound 0.000632 µM,0.662
same,relative viability,HCC-827; first compound 0.002 µM,0.329
same,relative viability,HCC-827; first compound 0.006325 µM,0.287
same,relative viability,HCC-827; first compound 0.02 µM,0.23
same,relative viability,NCI-H2405; first compound 0.0002 µM,0.875
same,relative viability,NCI-H2405; first compound 0.000632 µM,0.712
same,relative viability,NCI-H2405; first compound 0.002 µM,0.557
same,relative viability,NCI-H2405; first compound 0.006325 µM,0.419
same,relative viability,NCI-H2405; first compound 0.02 µM,0.329
same,relative viability,EPLC-272H; first compound 0.0002 µM,0.527
same,relative viability,EPLC-272H; first compound 0.000632 µM,0.339
same,relative viability,EPLC-272H; first compound 0.002 µM,0.0991
same,relative viability,EPLC-272H; first compound 0.006325 µM,0.0687
same,relative viability,EPLC-272H; first compound 0.02 µM,0.0452
same,relative viability,LCLC-103H; first compound 0.0002 µM,0.744
same,relative viability,LCLC-103H; first compound 0.000632 µM,0.803
same,relative viability,LCLC-103H; first compound 0.002 µM,0.748
same,relative viability,LCLC-103H; first compound 0.006325 µM,0.643
same,relative viability,LCLC-103H; first compound 0.02 µM,0.481
same,relative viability,NCI-H1651; first compound 0.0002 µM,0.188
same,relative viability,NCI-H1651; first compound 0.000632 µM,0.206
same,relative viability,NCI-H1651; first compound 0.002 µM,0.177
same,relative viability,NCI-H1651; first compound 0.006325 µM,0.137
same,relative viability,NCI-H650; first compound 0.0002 µM,0.361
same,relative viability,NCI-H650; first compound 0.000632 µM,0.292
same,relative viability,NCI-H650; first compound 0.002 µM,0.192
same,relative viability,NCI-H650; first compound 0.006325 µM,0.189
same,relative viability,NCI-H650; first compound 0.02 µM,0.148
same,relative viability,HCC-44; first compound 0.0002 µM,0.978
same,relative viability,HCC-44; first compound 0.000632 µM,0.954
same,relative viability,HCC-44; first compound 0.002 µM,0.908
same,relative viability,HCC-44; first compound 0.006325 µM,0.682
same,relative viability,HCC-44; first compound 0.02 µM,0.616
same,relative viability,NCI-H1395; first compound 0.0002 µM,0.502
same,relative viability,NCI-H1395; first compound 0.000632 µM,0.469
same,relative viability,NCI-H1395; first compound 0.002 µM,0.481
same,relative viability,NCI-H1395; first compound 0.006325 µM,0.341
same,relative viability,NCI-H1395; first compound 0.02 µM,0.339
same,relative viability,NCI-H520; first compound 0.0002 µM,0.31
same,relative viability,NCI-H520; first compound 0.000632 µM,0.286
same,relative viability,NCI-H520; first compound 0.002 µM,0.22
same,relative viability,NCI-H520; first compound 0.006325 µM,0.165
same,relative viability,NCI-H520; first compound 0.02 µM,0.132
same,relative viability,NCI-H1793; first compound 0.0002 µM,0.8
same,relative viability,NCI-H1793; first compound 0.000632 µM,0.517
same,relative viability,NCI-H1793; first compound 0.002 µM,0.287
same,relative viability,NCI-H1793; first compound 0.006325 µM,0.293
same,relative viability,NCI-H2085; first compound 0.0002 µM,0.725
same,relative viability,NCI-H2085; first compound 0.000632 µM,0.826
same,relative viability,NCI-H2085; first compound 0.002 µM,0.747
same,relative viability,NCI-H2085; first compound 0.006325 µM,0.431
same,relative viability,NCI-H2085; first compound 0.02 µM,0.298

# — the supplement of paper PMC10307832
